Measured values from US20240279603A1, “METHODS OF PROCESSING ADULT NEURAL CELLS FROM MAMMALS AND ASSAYS THEREOF” (THE TEXAS A&M UNIVERSITY SYSTEM, priority 2021, published 2024).

System: primary cortical neurons
Assay: Analysis of neurite outgrowth and survival of cultured adult cortical neurons (TUBB3/DAPI high-content imaging)
Format: cell-based, mouse
Conditions: for average neurite length vs Vehicle / number of valid neurons vs Vehicle / total neurite outgrowth vs Vehicle: 150 nM 7-epi Paclitaxel; for average neurite length vs Vehicle / number of valid neurons vs Vehicle / total neurite outgrowth vs Vehicle / overall screening result: 3DIV; for overall screening result: 7-epi Paclitaxel
Experimental: The instant example provides an exemplary protocol, method, and application of processing and screening using adult cortical neurons obtained from adult mice. In particular, the instant example used young adult and middle-aged male and female wild-type C57Bl/6 mice in which the young adult group comprised mice of 4-9 weeks of age and the middle-age group comprised mice of 40-48 weeks of age.
Approximately 20 μL of 50 μg/mL Poly-D-Lysine (PDL, Sigma Aldrich, A-003-M) was added onto the wells of 384-well glass bottom (Brooks Life Sciences, MGB101-1-2-LG-L) or plastic bottom (Greiner-Bio, 781091) plates and incubated inside a 5% CO2 incubator at 37° C. for 48 hours. After incubation, the wells of the plates were washed 5 times with H2O and set to dry overnight at room temperature and were used within 24 hours after drying.
Mice were euthanized and their brains were extracted and placed in cold Hank's balanced salt solution (HBSS) followed by microdissection of the cortex. Up to 1.25 grams of cortical tissue were placed in gentleMACS™ C tubes (Miltenyi Biotec, #130-093-237), where each tube contained 5 mL of 0.3 mg/mL papain (Worthington, LS003126) diluted in HBSS.
The gentleMACS™ C tubes were placed on the gentleMACS™ Octo Dissociator with heaters (Miltenyi Biotec, #130-096-427) with heating cuffs attached and underwent the gentleMACS Program 37C_ABDK_01 protocol. After protocol completion, the contents of the gentleMACS™ C Tube were strained through a 70 μm cell strainer (Miltenyi Biotec, #130-110-916) placed on top of a 15 mL conical centrifuge tube. Then, 7 mL of cold Dulbecco's Phosphate-Buffered Saline with glucose and pyruvate (DPBS, Thermo Fisher Scientific, 14287072) was added into each of the 15 mL conical centrifuge tubes on top of the strained cells. The 15 mL tubes were centrifuged at 300×g for 10 minutes at 4° C. before aspirating the supernatant completely.
Debris removal solution was made by adding 1800 μL of Debris Removal Concentrate (Miltenyi Biotec, #130-109-398) to 6200 μL of cold DPBS. The remaining pellet inside the 15 mL tubes was resuspended with 8 mL of Debris Removal Solution. Very slowly, 4 mL of cold DPBS was dispensed on top of the debris removal solution and cell mixture in each 15 mL tube forming a clear layer on top. The 15 mL tubes were centrifuged at 3000×g for 10 minutes at 4° C. with slow acceleration and deceleration. The top clear and middle debris layers were aspirated leaving the milky mixture beneath the debris layer untouched. 6 mL of DPBS was added onto the milky mixture and mixed gently before centrifuging at 300×g for 5 minutes at 4° C. All supernatant was aspirated afterwards.
Red Blood Cell Remover Solution was made by mixing 125 μL of Red Blood Cell Lysis Solution 10× (Miltenyi Biotec, #130-094-183) with 1125 μL of H2O. The remaining pellet was resuspended in 1.25 mL of Red Blood Cell Remover Solution and incubated for 10 minutes at 4° C. before the addition of 12 mL of 0.5% bovine serum albumin (BSA, Miltenyi Biotec, #130-091-376) diluted in DPBS. The mixture was centrifuged at 300×g for 5 minutes at 4° C. with the supernatant aspirated completely afterwards. The remaining pellet was resuspended in 80 μL of 0.5% BSA and 20 μL of Non-Neuronal Cells Biotin-Antibody Cocktail (Miltenyi Biotec, #130-115-389) and incubated for 5 minutes at 4° C. Cells were washed by adding 2 mL of 0.5% BSA followed by centrifugation at 300×g for 5 minutes at 4° C. followed by aspiration of the supernatant. The remaining pellet was resuspended in 80 μL of 0.5% BSA and 20 μL of Anti-Biotin MicroBeads (Miltenyi Biotec, #130-115-389) and incubated for 10 minutes at 4° C.
After the addition of 6 mL 0.5% BSA, the mixture was flowed through 0.5% BSA primed LS columns (Miltenyi Biotec, #130-042-401). The negative fraction containing the majority of neurons was collected and centrifuged at 300×g for 5 minutes at 4° C. and resuspended in neuron media. […]

[1] = 5 μM (S)-H-1152 vs Vehicle (0.05% DMSO), young adult male mice, 2DIV, 10,000 cells plated per well, two-way ANOVA
[2] = young adult male mice, 2DIV, relative to 0% DMSO
[3] = young adult male mice, 2DIV, PDL coated wells, laminin coating 10 μg/mL

Compound: CC(=O)O[C@H]1C(=O)[C@]2(C)[C@H](O)C[C@H]3OC[C@@]3(OC(C)=O)[C@H]2[C@H](OC(=O)c2ccccc2)[C@]2(O)C[C@H](OC(=O)[C@H](O)[C@@H](NC(=O)c3ccccc3)c3ccccc3)C(C)=C1C2(C)C [7-epi Paclitaxel]
- average neurite length vs Vehicle (middle-aged male cohort): significantly increased
- number of valid neurons vs Vehicle (middle-aged male cohort): without affecting
- total neurite outgrowth vs Vehicle (middle-aged male cohort): without affecting
- average neurite length vs Vehicle (young adult female cohort): significantly increased
- number of valid neurons vs Vehicle (young adult female cohort): significantly decreased
- total neurite outgrowth vs Vehicle (young adult female cohort): significantly decreased
- average neurite length vs Vehicle (young adult male cohort): significantly increased
- number of valid neurons vs Vehicle (young adult male cohort): significantly decreased
- total neurite outgrowth vs Vehicle (young adult male cohort): significantly decreased
- overall screening result (middle-aged male neurons): overall positive result
- overall screening result (young adult neurons): overall negative result

Compound: Cc1cncc2cccc(S(=O)(=O)N3CCCNC[C@@H]3C)c12 [(S)-H-1152]
- average neurite length [1]: significantly increased
- number of valid neurons [1]: significantly increased
- slope of the total neurite outgrowth linear regression line against cell plating density (5 μM (S)-H-1152 vs Vehicle, young adult male mice, 2DIV, 1,500-15,000 cells per well): steeper increase

Compound: C[S+](C)[O-] [DMSO, Dimethyl sulfoxide]
- correlation between average neurite length and % DMSO in the media (linear regression) [2]: significant negative correlation
- correlation between number of valid neurons per well and % DMSO in the media (linear regression) [2]: significant negative correlation
- correlation between total neurite outgrowth and % DMSO in the media (linear regression) [2]: significant negative correlation

Compound: laminin
- average neurite length, change relative to the control group (no B27+ supplement or laminin coating) [3]: did not induce a significant changes
- number of valid neurons, change relative to the control group (no B27+ supplement or laminin coating) [3]: did not induce a significant changes
- total neurite outgrowth, change relative to the control group (no B27+ supplement or laminin coating) [3]: did not induce a significant changes
